In patent publication EP1484329A1, “Indole derivatives with apoptosis inducing activity” (Zentaris GmbH, priority 2003, dated 2004):
Where two headings read alike, the source gives them in different places.

Columns and labels:
[1] = test system: Salmonella thyphimurium TA100; format: cell-based; conditions: for AMESTA100 mit S9: with rat liver S9; for AMESTA100 ohne S9: without S9
Procedure: (§1) Die Verbindung 2 wurde in einem Fluktuationsassay gegenüber den Mutanten-Stämmen TA98 und TA100 des Bakteriums Salmonella thyphimurium bei drei Konzentrationen (2.5; 5 und 10µM) auf Mutagenität hin untersucht. Die Mutagenitätsuntersuchungen wurden ferner in Gegenwart des Rattenleberenzyms S9 durchgeführt.

[2] = test system: Salmonella thyphimurium TA98; format: cell-based; conditions: for AMES TA98 mit S9: with rat liver S9; for AMES TA98 ohne S9: without S9
Procedure: as §1

O=C(Nc1ccc2ncccc2c1)C(=O)c1cn(Cc2ccc(Cl)cc2)c2ccccc12 [Verbindung 2, 2-[1-(4-Chlor-benzyl)-1 H-indol-3-yl]-2-oxo-N-chinolin-6-yl-acetamid]
inaktiv: AMESTA100 mit S9 ([1]; 2.5 µM) | AMESTA100 ohne S9 ([1]; 2.5 µM) | AMESTA100 mit S9 ([1]; 5 µM) | AMESTA100 ohne S9 ([1]; 5 µM) | AMESTA100 mit S9 ([1]; 10 µM) | AMESTA100 ohne S9 ([1]; 10 µM) | AMES TA98 mit S9 ([2]; 2.5 µM) | AMES TA98 ohne S9 ([2]; 2.5 µM) | AMES TA98 mit S9 ([2]; 5 µM) | AMES TA98 ohne S9 ([2]; 5 µM) | AMES TA98 mit S9 ([2]; 10 µM) | AMES TA98 ohne S9 ([2]; 10 µM)
